Measured values reported in patent US20220401429A1, “USE OF ANAMORELIN TO TREAT CANCER-RELATED FATIGUE” (Helsinn Healthcare SA, priority 2021, published 2022).
Read-outs that look alike come from different tables or passages of the source.

Tests used:
[1] = tested on: patients with advanced cancer; experiment: Multidimensional Fatigue Symptom Inventory-Short Form (MFSI-SF), Example 1 study; format: in vivo, human; settings: Day 86 (N = 8), change from baseline, 100 mg oral daily + physical activity + nutritional counseling
Procedure: (§1) In this single arm study, 38 patients were intended for treatment with anamorelin for 6 weeks with an optional extension phase of 6 more weeks based on tolerability and safety and patient willingness. Patients received anamorelin 100 mg tablets and physical activity for 6 weeks for the intervention phase. Patients took 1 tablet orally while fasting (at least 1 hour before a meal).
(§2) Secondary objectives of the study were to examine the effects of anamorelin and standardized physical activity and nutritional counseling on Health-related quality of life and patient reported outcomes as measured by The Multidimensional Fatigue Symptom Inventory-Short Form[MFSI-SF], PROMIS-Fatigue, Hospital Anxiety Depression Scale (HADS), Edmonton Symptom Assessment Scale (ESAS), Functional Assessment of Cancer Therapy (FACT-G), and its Functional Assessment of Anorexia/Cachexia Treatment (FAACT) subscale in these patients.
MFSI-SF consists of 30 items designed to assess the multidimensional nature of fatigue(Stein, Jacobsen et al. 2004). Ratings are summed to obtain scores for 5 subscales (general fatigue, physical fatigue, emotional fatigue, mental fatigue, and vigor).

[2] = tested on: patients with advanced cancer; experiment: PROMIS-Fatigue, Example 1 study; format: in vivo, human; settings: change from baseline, 100 mg oral daily + physical activity + nutritional counseling
Procedure: as §1, §2
PROMIS measures key symptoms and health concepts applicable to advanced cancer, enabling efficient and interpretable clinical trial research and clinical practice application of patient-reported outcomes (PROs) (Rothrock, Hays et al. 2010, Yost, Eton et al. 2011).

[3] = tested on: patients with advanced cancer; experiment: FACT-G, Example 1 study; format: in vivo, human; settings: change from baseline, 100 mg oral daily + physical activity + nutritional counseling
Procedure: as §1, §2
The FACT-G is a 27-item compilation of general questions divided into four primary domains: Physical Well-Being, Social/Family Well-Being, Emotional Well-Being, and Functional Well-Being. It is appropriate for use in patients with any form of cancer, and extensions of it have been used and validated in other chronic illness conditions as well (Cella, Tulsky et al. 1993, Webster, Cella et al. 2003). The FACT-G is the first 2 pages of FACIT-F.

[4] = tested on: patients with advanced cancer; experiment: FAACT Anorexia/Cachexia subscale, Example 1 study; format: in vivo, human; settings: change from baseline, 100 mg oral daily + physical activity + nutritional counseling
Procedure: as §1, §2
The FAACT-Anorexia/Cachexia subscale is a 12-item symptom-specific subscale designed to measure patients' additional concerns about their anorexia/cachexia during the previous 7 days. The FAACT has internal consistency and a reliability coefficient (Cronbach's alpha) of 0.88 for the 12 components (Ribaudo, Cella et al. 2000). Patients rate the intensity of anorexia/cachexia and its related symptoms on a 0-4 scale like that used in the FACIT-F.

[5] = tested on: patients with advanced cancer; experiment: Pittsburgh Sleep Quality Index (PSQI), Example 1 study; format: in vivo, human; settings: 100 mg oral daily + physical activity + nutritional counseling
Procedure: as §1

[6] = tested on: patients with advanced cancer; experiment: Godin Leisure-Time physical activity questionnaire, Example 1 study; format: in vivo, human; settings: Day 86 (N = 8), change from baseline, 100 mg oral daily + physical activity + nutritional counseling
Procedure: as §1
(§3) Measures: We used the 30 second chair stand test, six-minute walk test, and an accelerometer. A self-report exercise questionnaire, the Godin Leisure-Time physical activity questionnaire, was used to complement the objective measures. IM Systems-three dimensional accelerometers (“Biotrainer-Pro”) was used to objectively measure physical activity.
(§4) Physical Performance Tests: The 30 second chair stand test, 6-minute walk test, and Godin Leisure-Time physical activity questionnaire were administered at baseline and on Day 43. The 30 second sit-to-stand task assessed lower body strength (Rikli and Jones 1999).
The Godin Leisure-Time physical activity questionnaire asks participants how many times per week on average they participate in strenuous, moderate and mild exercises for more than 15 minutes during their free time. […]

[7] = tested on: patients with advanced cancer; experiment: Global Symptom Evaluation, Example 1 study; format: in vivo, human; settings: time point not clearly stated; 100 mg oral daily + physical activity + nutritional counseling
Procedure: as §1

[8] = Weight and body composition (InBody), Example 1 study; format: in vivo, human; settings: Day 43, 28 evaluable patients, 100 mg oral daily + physical activity + nutritional counseling
Procedure: as §1
(§5) Exploratory objectives of the study were to explore the effects of anamorelin and standardized physical activity and nutritional counseling on muscle function (as measured by the 30 second chair stand test, 6 minute walk test, day time activity (accelerometer), body composition (as measured by INBODY), and Resting Energy Expenditure (measured by indirect calorimetry)
Body Composition: All patients were assessed for lean body mass, skeletal muscle mass, extracellular water/total body water body, fat mass, body fat mass, and whole body phase angle evaluation (using the InBody body composition scale) (Dalal, Hui et al. 2012, Del Fabbro, Parsons et al. 2012, Yennurajalingam, Willey et al. 2012, Hui, Bansal et al. 2014). Resting energy expenditure was assessed at baseline and Day 43±3 days, and at the end of 6 weeks of the extension phase.

IGF-1 = IGF-1 level, Example 1 study; format: in vivo, human; settings: Day 43, 28 evaluable patients, 100 mg oral daily + physical activity + nutritional counseling
Procedure: as §1

[9] = tested on: patients with advanced cancer; experiment: Physical performance tests (30 second chair stand test, 6-minute walk test), Example 1 study; format: in vivo, human; settings: Day 43 vs baseline, 100 mg oral daily + physical activity + nutritional counseling
Procedure: as §1, §5
Measures: We used the 30 second chair stand test, six-minute walk test, and an accelerometer. A self-report exercise questionnaire, the Godin Leisure-Time physical activity questionnaire, was used to complement the objective measures. […]
as §4
In the six-minute walk test, participants were asked to walk as fast and as far as they can for six minutes, and the distance walked was measured. […]

[10] = tested on: patients with advanced cancer; experiment: Daytime activity by accelerometer (actigraphy), Example 1 study; format: in vivo, human; settings: 100 mg oral daily + physical activity + nutritional counseling
Procedure: as §1, §5, §3

[11] = tested on: patients with advanced cancer; experiment: Adverse events, Example 1 study; format: in vivo, human; settings: 100 mg oral daily, 6 weeks with optional 6 week extension
Procedure: as §1

[12] = tested on: cachectic patients with non-small cell lung cancer; settings: cited from earlier work
[13] = tested on: Patients With Non—Small Cell Lung Cancer and Cachexia; settings: study by Katakami and Uchino et al. 2018; cited from earlier work
[14] = ROMANA 1 and ROMANA 2, both studies

In the case of `CN(C)N(C)C(=O)[C@@]1(Cc2ccccc2)CCCN(C(=O)[C@@H](Cc2c[nH]c3ccccc23)NC(=O)C(C)(C)N)C1` [anamorelin], the “MFSI-SF Mental fatigue, change, Mean (±SD)” value [1] was −2.25 (±3.62),, the “MFSI-SF Physical fatigue, change, Mean (±SD)” value [1] was −1.88 (±3.98), and the “MFSI-SF Total, change, Mean (±SD)” value [1] was −11.75 (±14.22),. The “MFSI-SF Vigor, change, Mean (±SD)” value [1] was 2.75 (±3.01),, the “PROMIS-Fatigue, change, Mean (±SD)” value ([2]; Day 15 (N = 28)) was −2.74 (±6.12), and the “PROMIS-Fatigue, change, Mean (±SD)” value ([2]; Day 29 (N = 28)) was −3.64 (±8.22),. For the same compound, the “PROMIS-Fatigue, change, Mean (±SD)” value ([2]; Day 86 (N = 8)) was −6.36 (±6.32),, the “FACT-G Total, change, Mean (±SD)” value ([3]; Day 15 (N = 28)) was 0.59 (±9.17), and the “FACT-G Total, change, Mean (±SD)” value ([3]; Day 29 (N = 28)) was 1.31 (±8.97),. The “FACT-G Total, change, Mean (±SD)” value ([3]; Day 43 (N = 28)) was −1.10 (±10.71),, the “FACT-G Total, change, Mean (±SD)” value ([3]; Day 86 (N = 8)) was 4.54 (±7.65), and the “FAACT-A/CS Total, change, Mean (±SD)” value ([4]; Day 15 (N = 28)) was 1.70 (±4.89),. The “FAACT-A/CS Total, change, Mean (±SD)” value ([4]; Day 29 (N = 28)) was 4.53 (±5.54),, the “FAACT-A/CS Total, change, Mean (±SD)” value ([4]; Day 86 (N = 8)) was −5.86 (±3.72), and the “PSQI (N = 15), change, Mean (±SD)” value ([5]; Day 29, change from baseline) was −0.09 (±4.18),. For the same compound, the “PSQI (N = 15), change, Mean (±SD)” value ([5]; Day 43, change from baseline) was −0.09 (±2.12),, the “PSQI (N = 15), change, Mean (±SD)” value ([5]; Day 86, change from baseline) was −0.50 (±2.95), and the “Godin Leisure Test Total, change, Mean (±SD)” value [6] was −0.67 (±6.35),. The “Global Symptom Evaluation: About the same N (%)” value [7] was 9 (36%), the “Global Symptom Evaluation: Better N (%)” value [7] was 13 (52%) and the “Global Symptom Evaluation: Worse N (%)” value [7] was 3 (12%). The “Lean Body Mass improvement from baseline, mean (SD)” value [8] was 1.54 (±1.85), the “Weight improvement from baseline, mean (SD)” value [8] was 1.81 (±2.63) kg and the “IGF-1 change from baseline, mean (SD)” value (IGF-1) was 36.50 (±48.76). For the same compound, the “Improvement in the physical performance outcomes” value [9] was “no significant improvement”, the “Improvement in mean daytime activity (actigraphy activity measure)” value [10] was “no significant improvement” and the “Severe (≥grade 3) adverse events related to the study drug” value [11] was “No severe (≥grade 3) adverse events”. The “Effect size for improvement in CRF” value ([12]; ROMANA 1) was 0.16, the “Effect on fatigue using the FACIT-F” value [12, 14] was “unable to detect a significant effect” and the “Effect on strength measured by handgrip strength” value [12, 14] was “unable to detect a significant effect”. For the same compound, the “Effect size for improvement in CRF” value ([12]; ROMANA 2) was 0.008, the “Treat fatigue and improve handgrip strength, pooled post-hoc analysis” value ([12]; higher BMIs) was “ineffective” and the “Treat fatigue and improve handgrip strength, pooled post-hoc analysis” value ([12]; patients with BMI less than 20 kg/m^2) was “effective”. The “Effect size for improvement in CRF” value [13] was 0.057.
